Experimental data reported in patent publication US20100093536A1, “CONTROL OF GRASSY WEEDS WITH VINYLGLYCINES AND VINYLGLYCINE-PRODUCING ORGANISMS” (THE STATE OF OREGON ACTING BY AND THROUGH THE STATE BOARD …, priority 2008, published 2010).

Tested on: Poa annua (annual bluegrass) seeds
Experiment: Standard GAF Bioassay System (Standard Poa Bioassay), seed germination scored after 7 days
Assay type: in vivo
Parameters: key to GERMINATION SCORE IN THE POA BIOASSAY (±Standard Error of the Mean) / GERMINATION SCORE (±Standard Error of the Mean): germination score, 0 = no germination to 4.0 = first true leaf emerged
Details: for reversal of the effects of GAF by amino acids, in words: in presence of WH6 culture filtrate; for toxicity of trace metal in the Poa bioassay, in words: higher concentrations tested (up to 200 μM)
Experimental: The seed of Poa annua (or other test seeds) were surface-sterilized by placing two to five grams of seeds in a 50 ml glass beaker, covering the seeds with a 50% (v/v) solution of H2SO4, and stirring vigorously for 5 minutes. The seed/acid mixture was filtered through a Gooch crucible and repeatedly rinsed with tap water to remove residual acid. The seeds were then placed in a beaker and covered with bleach (Clorox®, NaOCl, 5.25%) containing 1% (v/v) polyoxethylene sorbitan monolaurate (Tween®-20). The seeds were stirred for 5 minutes and then repeatedly rinsed with sterile deionized water and placed in a sterile Petri dish. The seeds were used immediately while wet or dried (spread in a thin layer and allowed to dry under a laminar flow hood with the Petri dish lid ajar for 4 to 8 hours) to prevent premature germination.
Bioassays for GAF activity were performed with Poa annua (annual bluegrass) seeds unless otherwise indicated. For each concentration of each test solution, 200 μl aliquots of solution were distributed to each of three wells of a sterile Costar® forty-eight well tissue culture plate (Corning® Costar® Number 3548). Three surface-sterilized Poa annua seeds were aseptically transferred to each well and submerged in the liquid, providing a total of nine observations for each concentration of each solution tested. The lid of the tissue culture plate was sealed with Parafilm® and the plate was placed in a germinator at 20° C. (8 hour day length at a light intensity of 50 μmol/m^2/s, 16 hour dark period) for seven days. Germination was scored on the basis of the following four-point system: • Score 0: No visible signs of germination. • Score 0.5: Seed coat split but plumule and coleorhiza are not visible. • Score 1.0: Plumule and coleorhiza visible. Plumule chlorotic and shorter than length of seed. Root not yet visible. • Score 1.5: Plumule still shorter than length of seed, but root is clearly visible. • Score 2.0: Plumule approximately equal in length to the seed. Root elongated. • Score 2.5: Plumule obviously longer than length of seed. First true leaf still enclosed in coleoptile. • Score 3.0: First true leaf emerged from coleoptile and green. Emerged portion of the leaf is obviously shorter than the coleoptile. • Score 3.5: First true leaf emerged from coleoptile and green. Emerged portion of the leaf is approximately equal in length to the coleoptile. • Score 4.0: First true leaf emerged from coleoptile and green. Emerged portion of the leaf is obviously longer than the coleoptile.

[1] = WH6 culture filtrate 0, amino acid 0.3 mM
[2] = WH6 culture filtrate 0, amino acid 1 mM
[3] = WH6 culture filtrate 0, amino acid 3 mM
[4] = WH6 culture filtrate 0, amino acid 10 mM
[5] = WH6 culture filtrate 0, amino acid 30 mM
[6] = WH6 culture filtrate 0.1X plus amino acid 0.3 mM
[7] = WH6 culture filtrate 0.1X plus amino acid 1 mM
[8] = WH6 culture filtrate 0.1X plus amino acid 3 mM
[9] = WH6 culture filtrate 0.1X plus amino acid 10 mM
[10] = WH6 culture filtrate 0.1X plus amino acid 30 mM
[11] = GAF Conc. 0, metal 12.5 μM, score 4.0 = normal germination, 1.0 = arrest
[12] = GAF Conc. 2X plus metal 12.5 μM

Compound	POA BIOASSAY SCORES (±Standard Error of the Mean) [11]	POA BIOASSAY SCORES (±Standard Error of the Mean) (GAF Conc. 0, metal 25 μM)	POA BIOASSAY SCORES (±Standard Error of the Mean) (GAF Conc. 0, metal 50 μM)	POA BIOASSAY SCORES (±Standard Error of the Mean) (GAF Conc. 0, metal 100 μM)	POA BIOASSAY SCORES (±Standard Error of the Mean) (GAF Conc. 0, metal 200 μM)	POA BIOASSAY SCORES (±Standard Error of the Mean) [12]	POA BIOASSAY SCORES (±Standard Error of the Mean) (GAF Conc. 2X plus metal 25 μM)	POA BIOASSAY SCORES (±Standard Error of the Mean) (GAF Conc. 2X plus metal 50 μM)	POA BIOASSAY SCORES (±Standard Error of the Mean) (GAF Conc. 2X plus metal 100 μM)	POA BIOASSAY SCORES (±Standard Error of the Mean) (GAF Conc. 2X plus metal 200 μM)	further results
C[C@H](N)C(=O)O [Alanine]	–	–	–	–	–	–	–	–	–	–	GERMINATION SCORE (±Standard Error of the Mean) [1]: 4.0 ± 0.0; GERMINATION SCORE (±Standard Error of the Mean) [2]: 3.9 ± 0.1; GERMINATION SCORE (±Standard Error of the Mean) [3]: 4.0 ± 0.0; GERMINATION SCORE (±Standard Error of the Mean) [4]: 3.9 ± 0.1; GERMINATION SCORE (±Standard Error of the Mean) [5]: 3.2 ± 0.1; GERMINATION SCORE (±Standard Error of the Mean) [6]: 1.9 ± 0.1; GERMINATION SCORE (±Standard Error of the Mean) [7]: 3.3 ± 0.1; GERMINATION SCORE (±Standard Error of the Mean) [8]: 4.0 ± 0.0; GERMINATION SCORE (±Standard Error of the Mean) [9]: 4.0 ± 0.0; GERMINATION SCORE (±Standard Error of the Mean) [10]: 4.0 ± 0.0; reversal of the effects of GAF by amino acids, in words: most effective
[Ca+2].[Cl-].[Cl-] [CaCl2]	4.00 ± 0.00	4.00 ± 0.00	4.00 ± 0.00	4.00 ± 0.00	4.00 ± 0.00	1.00 ± 0.00	1.00 ± 0.00	1.00 ± 0.00	1.00 ± 0.00	1.00 ± 0.00	–
[Cu] [Copper]	–	–	–	–	–	–	–	–	–	–	toxicity of trace metal in the Poa bioassay, in words: completely inhibiting germination
[Cl][Cu][Cl] [CuCl2]	3.3 ± 0.17	2.9 ± 0.04	1.2 ± 0.27	0.30 ± 0.28	0.00 ± 0.00	1.00 ± 0.00	2.58 ± 0.06	3.94 ± 0.06	2.97 ± 0.03	2.69 ± 0.09	–
O=S(=O)([O-])[O-].[Cu+2] [CuSO4]	3.5 ± 0.00	3.00 ± 0.00	1.11 ± 0.11	0.00 ± 0.00	0.00 ± 0.00	1.00 ± 0.00	1.00 ± 0.00	1.00 ± 0.00	3.00 ± 0.00	0.00 ± 0.00	–
O=S(=O)([O-])[O-].[Fe+2] [FeSO4]	4.00 ± 0.00	3.50 ± 0.13	3.00 ± 0.00	2.86 ± 0.44	2.47 ± 0.07	1.00 ± 0.00	1.00 ± 0.00	1.00 ± 0.00	1.00 ± 0.00	1.00 ± 0.00	–
NC(=O)CC[C@H](N)C(=O)O [Glutamine]	–	–	–	–	–	–	–	–	–	–	GERMINATION SCORE (±Standard Error of the Mean) [1]: 4.0 ± 0.0; GERMINATION SCORE (±Standard Error of the Mean) [2]: 4.0 ± 0.0; GERMINATION SCORE (±Standard Error of the Mean) [3]: 3.7 ± 0.3; GERMINATION SCORE (±Standard Error of the Mean) [4]: 3.7 ± 0.3; GERMINATION SCORE (±Standard Error of the Mean) [5]: 4.0 ± 0.0; GERMINATION SCORE (±Standard Error of the Mean) [6]: 1.4 ± 0.1; GERMINATION SCORE (±Standard Error of the Mean) [7]: 1.8 ± 0.2; GERMINATION SCORE (±Standard Error of the Mean) [8]: 3.5 ± 0.3; GERMINATION SCORE (±Standard Error of the Mean) [9]: 4.0 ± 0.0; GERMINATION SCORE (±Standard Error of the Mean) [10]: 4.0 ± 0.0; reversal of the effects of GAF by amino acids, in words: most effective
[Fe] [Iron]	–	–	–	–	–	–	–	–	–	–	toxicity of trace metal in the Poa bioassay, in words: slight toxicity
CC(C)C[C@H](N)C(=O)O [Leucine]	–	–	–	–	–	–	–	–	–	–	GERMINATION SCORE (±Standard Error of the Mean) [1]: 3.9 ± 0.2; GERMINATION SCORE (±Standard Error of the Mean) [2]: 4.0 ± 0.0; GERMINATION SCORE (±Standard Error of the Mean) [3]: 3.6 ± 0.2; GERMINATION SCORE (±Standard Error of the Mean) [4]: 3.0 ± 0.0; GERMINATION SCORE (±Standard Error of the Mean) [5]: 1.7 ± 0.1; GERMINATION SCORE (±Standard Error of the Mean) [6]: 1.5 ± 0.0; GERMINATION SCORE (±Standard Error of the Mean) [7]: 1.5 ± 0.3; GERMINATION SCORE (±Standard Error of the Mean) [8]: 3.6 ± 0.1; GERMINATION SCORE (±Standard Error of the Mean) [9]: 3.4 ± 0.1; GERMINATION SCORE (±Standard Error of the Mean) [10]: 2.8 ± 0.1
[Cl][Ni][Cl] [NiCl2]	2.78 ± 0.05	2.47 ± 0.10	1.78 ± 0.09	1.44 ± 0.06	1.00 ± 0.00	1.00 ± 0.00	1.00 ± 0.00	1.00 ± 0.00	1.00 ± 0.00	1.00 ± 0.00	–
[Cl-].[Cl-].[Zn+2] [ZnCl2]	4.00 ± 0.00	4.00 ± 0.00	4.00 ± 0.00	3.5 ± 0.00	3.00 ± 0.00	1.00 ± 0.00	1.00 ± 0.00	1.00 ± 0.00	1.00 ± 0.00	1.00 ± 0.00	–
